Laboratory results taken from patent publication US20230312582A1, “Salts Of Nitrogen-Containing Heterocyclic Compound, And Solid Forms Of Salts, Pharmaceutical Composition And Use Thereof” (Wuhan Humanwell Innovative Drug Research And Development …, priority 2020, published 2023).
Where two headings read alike, the source gives them in different places.

Experiments:
[1] = Solid stability evaluation at 60° C. for 24 h; format: physicochemical
Description: The crystal form A of benzenesulfonate of the compound of formula (I) was used as a starting sample, and 100 polymorph screening tests under different conditions were set. The screening method comprises the following steps: adding an anti-solvent, slowly volatilizing, slowly cooling, suspending and stirring (room temperature and 50° C.), circularly heating and cooling, gas-solid permeation, gas-liquid diffusion, inducing and grinding a high polymer. From the X-ray powder diffraction (XRPD) results of the isolated solid, only one polymorph of benzenesulfonate, i.e., the starting form A, was found. A partial evaluation was completed in the salt form screening stage, so only solid stability evaluation at 60° C. for 24 h was performed.

[2] = Polarizing microscope (PLM) image, particle size; format: physicochemical; conditions: room temperature
Excerpt: The polarizing microscope data are acquired by an Axio Lab. A1 upright microscope at room temperature.

[3] = Pharmacokinetic assay (crystal form) in mice; format: in vivo; conditions: male, ICR, mouse, plasma, oral intragastric administration 10 mg/kg
Description: (§1) In vivo pharmacokinetic assay in mice was performed, wherein the used mice were 9 male ICR mice weighing 20-25 g and fasted overnight. 9 mice were taken and orally intragastrically administered with 10 mg/kg of the compound. […] Blood samples were centrifuged at 8000 rpm for 6 min at 4° C., and plasma was collected and stored at −20° C. The plasma at each time point was taken and added with 3-5 times of acetonitrile solution containing the internal standard for mixing, and the mixed solution was subjected to vortex mixing for 1 min, and centrifuging at 4° C. for 10 min at 13000 rpm. The supernatant was taken and added with 3 times of water for mixing. A proper amount of the mixed solution was taken for LC-MS/MS analysis. The major pharmacokinetic parameters were analyzed using WinNonlin 7.0 software and a non-compartmental model.

[4] = Hygroscopicity by dynamic vapor sorption (DVS); format: physicochemical
Description: Dynamic vapor sorption (DVS) curves are acquired on a DVS Intrinsic in SMS (Surface Measurement System). The relative humidity at 25° C. is corrected with the deliquescence points of LiCl, Mg(NO3)2 and KCl.
Hygroscopicity of the crystal form A of hydrochloride, the crystal form A of fumarate, the crystal form A of benzenesulfonate and the free base crystal form A prepared repeatedly was evaluated using a dynamic vapor sorption (DVS) instrument. Starting at 0% relative humidity (0% RH), the test acquired the percentage change of mass of the sample when humidity changed (0% RH to 95% RH to 0% RH) at a constant temperature of 25° C.

[5] = Stability of crystal form on storage for 6 months; format: physicochemical; conditions: 40° C./75% RH; 25° C./60% RH; 2° C. to 8° C.; polyethylene bag + aluminum foil bag
Excerpt: (the aluminum foil bag is made of light-proof materials and can be protected from light; and the polyethylene bag and the aluminum foil bag are sealed when being packaged).

[6] = Dynamic solubility in water and three biological vehicles; format: physicochemical; conditions: for Crystal form change: XRPD of solid; for pH: filtrate
Description: The dynamic solubility of the crystal form A of hydrochloride, the crystal form A of fumarate, the crystal form A of benzenesulfonate and the free base crystal form A prepared repeatedly was evaluated in water and three biological vehicles. […] After centrifugation of the samples at each time point (0.45 μm PTFE filter head), the filtrate was determined for HPLC concentration and pH, and the centrifuged solid samples were tested for XRPD.

Solid stability, 1 week = format: physicochemical; conditions: for Purity (area %): HPLC; for Crystal form change: XRPD
Description: The crystal form A of hydrochloride, the crystal form A of fumarate, the crystal form A of benzenesulfonate and the free base crystal form A prepared repeatedly were placed at 25° C./60% RH and 40° C./75% RH for 1 week, and then the physical and chemical stability of the samples were tested by XRPD and HPLC. […] No significant purity decrease or crystal form transformation occurred in any of the other samples after being placed under 2 conditions for 1 week.

[7] = Thermodynamic solubility assay; format: physicochemical; conditions: thermodynamic from solid
Description: The compounds were weighed out accurately, added to the prepared phosphate buffered saline at pH 7.4, FeSSIF solution at pH 5.8 and FaSSGF solution at pH 1.6 to prepare a solution at a concentration of 4 mg/mL, and the prepared solution was shaken at 1000 rpm for 1 h, and then incubated overnight at room temperature. The incubated solution was centrifuged at 12000 rpm for 10 min to remove undissolved particles, and the supernatant was transferred to a new centrifuge tube. After the supernatant was diluted properly, the supernatant was added with an acetonitrile solution containing an internal standard, and quantified by adopting a standard curve prepared by the same matrix.

[8] = In vivo pharmacokinetic assay in rats
Description: as §1, with “rats” for “mice”, “6” for “9”, “SD rats” for “ICR mice”, “180-240” for “20-25”, “overnight.” for “overnight. 9 mice were taken and orally intragastrically administered with 10 mg/kg of the compound.”

[9] = system: Bleomycin-induced IPF model; experiment: Bleomycin-induced IPF model in rats; format: in vivo; conditions: 30 mg/kg oral twice a day, 21 days
Description: The bleomycin-induced IPF model (idiopathic pulmonary fibrosis model) was performed at a dose of 5 U/kg using male BN rats weighing 180-240 g. […] The oral intragastric administration was performed twice a day on the second day after the modeling. The administration group was given a dose of 30 mg/kg at one time, and the vehicle control group was given blank vehicle for 21 consecutive days. During dosing, body weights were weighed every three days. On the 21st day of administration, bronchoalveolar lavage was performed 2 h after the first administration, the inflammatory cells in the lavage fluid were counted, and the relevant biomarkers in the lavage fluid supernatant were detected; after lavage, the left lung of the rat was harvested for fixation, and Masson's trichrome staining was used for pathological scoring of fibrosis and the remaining lung lobes were cryopreserved. The bronchoalveolar lavage fluid supernatant and freshly cryopreserved lung tissue of compound 3 group were taken, and the TGF-β1 protein content and total protein amount were detected by ELISA method, and the amount of TGF-β1 per mg of total protein was calculated.

[10] = In vivo pharmacokinetic assay in mice; conditions: male, ICR, mouse, plasma
Description: as §1, with “rats” for “mice”, “6” for “9”, “SD rats” for “ICR mice”, “180-240” for “20-25”, “overnight.” for “overnight. 9 mice were taken and orally intragastrically administered with 10 mg/kg of the compound.”
In vivo pharmacokinetic assay in mice was performed, wherein the used mice were 18 male ICR mice weighing 20-25 g and fasted overnight. […] The rest of the procedure was performed in the same manner as in the pharmacokinetic assay in rats.

hERG channel [11] = target: T1, hERG channel (Homo sapiens (Human), UniProt Q12809); conditions: hERG IC50 in μM divided by ATX IC50 in nM as printed
T1 sequence (Q12809 whole entry): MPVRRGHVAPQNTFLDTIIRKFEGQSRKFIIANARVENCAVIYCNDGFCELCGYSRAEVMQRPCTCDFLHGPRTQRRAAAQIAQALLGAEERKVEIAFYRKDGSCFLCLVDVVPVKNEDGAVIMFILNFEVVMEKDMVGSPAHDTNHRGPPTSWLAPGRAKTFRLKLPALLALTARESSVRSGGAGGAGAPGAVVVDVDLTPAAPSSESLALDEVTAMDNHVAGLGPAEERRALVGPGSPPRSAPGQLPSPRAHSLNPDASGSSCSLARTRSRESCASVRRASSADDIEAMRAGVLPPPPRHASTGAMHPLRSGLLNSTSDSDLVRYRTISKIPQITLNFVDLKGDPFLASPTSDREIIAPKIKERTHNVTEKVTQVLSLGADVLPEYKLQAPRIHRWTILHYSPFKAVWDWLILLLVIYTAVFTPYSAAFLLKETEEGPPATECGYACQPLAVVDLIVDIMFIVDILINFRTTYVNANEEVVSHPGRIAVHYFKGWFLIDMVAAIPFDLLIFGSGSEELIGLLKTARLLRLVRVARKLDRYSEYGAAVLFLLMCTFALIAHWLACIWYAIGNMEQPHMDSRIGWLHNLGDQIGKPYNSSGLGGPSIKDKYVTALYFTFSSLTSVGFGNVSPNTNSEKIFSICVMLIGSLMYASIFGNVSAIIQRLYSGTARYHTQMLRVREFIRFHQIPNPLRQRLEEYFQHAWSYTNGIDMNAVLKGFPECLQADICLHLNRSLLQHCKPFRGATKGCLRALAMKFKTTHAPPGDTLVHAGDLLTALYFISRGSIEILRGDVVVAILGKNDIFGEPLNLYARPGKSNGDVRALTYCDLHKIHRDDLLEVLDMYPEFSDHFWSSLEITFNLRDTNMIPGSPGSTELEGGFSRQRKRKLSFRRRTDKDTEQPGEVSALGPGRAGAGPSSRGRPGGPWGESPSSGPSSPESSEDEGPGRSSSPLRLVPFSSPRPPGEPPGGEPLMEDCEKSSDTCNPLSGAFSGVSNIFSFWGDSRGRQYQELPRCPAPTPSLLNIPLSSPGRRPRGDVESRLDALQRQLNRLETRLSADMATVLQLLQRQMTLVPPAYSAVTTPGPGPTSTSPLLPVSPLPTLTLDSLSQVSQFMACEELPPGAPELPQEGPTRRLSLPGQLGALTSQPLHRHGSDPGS
Description: (§2) Inhibitory effect of the compound on hERG was detected using automated electrophysiological patch clamp QPatch. The cells used in this assay were CHO cell lines (supplied by Sophion Bioscience, Denmark) transfected with hERG cDNA and stably expressing hERG channel at cell passage number of P24. The cells were cultured in a medium containing the following components (all purchased from Invitrogen): ham's F12 medium, 10% (v/v) inactivated fetal bovine serum, 100 μg/mL hygromycin B and 100 μg/mL Geneticin. CHO hERG cells were grown in a culture dish containing the above culture solution and cultured in an incubator containing 5% CO2 at 37° C.
(§3) Extracellular buffer (2 mM CaCl2, 1 mM MgCl2, 4 mM KCl, 145 mM NaCl, 10 mM Glucose, 10 mM HEPES, pH: about 7.4, osmotic pressure: about 305 mOsm) and intracellular buffer (5.374 mM CaCl2, 1.75 mM MgCl2, 120 mM KCl, 10 mM HEPES, 5 mM EGTA, 4 mM Na-ATP, pH: about 7.25, osmotic pressure: about 295 mOsm) were prepared. […]
(§4) The assay data were analyzed by Qpatch analysis software supplied by Sophion, Excel, Graphpad Prism and the like.

Autotaxin enzyme = Autotaxin enzyme (Homo sapiens (Human), UniProt Q13822); conditions: read-out: IC50 against ATX enzymatic activity; Autotaxin Inhibitor Screening Assay Kit, 37° C., 30 min, OD405
Description: The inhibitory activity of the compound against the Autotaxin enzyme was detected using the Autotaxin Inhibitor Screening Assay Kit (Cayman, 700580). The compound to be tested was first prepared into 10 mM stock solution in DMSO solvent, and then serially diluted into 8 concentrations of compound with DMSO. Subsequently, 8 concentrations of compound were diluted to 19× compound working solution (with DMSO content of 1.9%) with an Autotaxin Assay buffer (1×) provided in the kit. Autotaxin Assay Reagent (10×) was taken out and diluted 10-fold with Autotaxin Assay Buffer (1×). The Autotaxin Substrate was taken out, and added with 1.2 mL of Autotaxin Assay Buffer (1×) for dissolving. The mixture was mixed well and then let stand at room temperature. In a 96-well plate, 150 μL of Autotaxin Assay Buffer (1×), 10 μL of diluted 19× compound working solution, 10 μL of Autotaxin Assay Reagent (1×), 20 μL of dissolved Autotaxin Substrate were added into wells at each concentration, and then the mixture was mixed well, incubated at 37° C. on a constant-temperature shaking shaker, and incubated in the dark for 30 min.

hERG channel [12] = target: T1, hERG channel; experiment: cell-based
Description: as §2, §3, §4

[13] = target: ATX enzymatic activity in human plasma (Homo sapiens (Human), UniProt Q13822); experiment: biochemical
Description: Whole blood from healthy volunteers was collected and anticoagulated with heparin. The blood collection tubes were centrifuged at 3000 rpm for 10 min, and plasma was taken and stored at −80° C. for later use.
The compounds were serially diluted with DMSO according to the standard concentration requirements, and then 3 μL of the compound was taken and added to a 96-well plate. 147 μL of PBS was added to each well containing 3 μL of the compound, and the mixed solution was mixed well, and then 50 μL of the mixed solution was taken out and added to a new 96-well plate. The human plasma was taken out of −80° C. refrigerator and thawed by rapid shaking in a 37° C. water bath, and 50 μL of human plasma was added to a 96-well plate containing 50 μL of diluted compounds (the final system was 1% DMSO). […]
After the incubation, the blank group was thawed on ice and transferred to the incubation plate. […] The peak areas of LPA18:2 and internal standard LPA17:0 were detected by LC-MSMS mass spectrometry.
The peak area ratio of LPA18:2 to internal standard LPA17:0 was calculated, and the generation inhibition rate of LPA18:2 was calculated according to the following formula: […]
According to the inhibition rate of different concentrations of the compound, the IC50 values of the compound were calculated for inhibition of ATX enzymatic activity in human plasma.

[14] = Stability assay of human liver microsome; format: in vitro ADME; conditions: human liver microsomes
Description: The stability of human liver microsome was detected by in vitro co-incubation of compounds with human liver microsomes. Test compounds were first prepared as 10 mM stock solutions in DMSO solvent, followed by dilution of the compounds to 0.5 mM using acetonitrile. […] The deep-well plate was taken, […] was added to each well, then 15 μL of pre-warmed 6 mM NADPH solution was added to the plate to start the reaction, and the plate was incubated at 37° C. […] The supernatant was taken after centrifugation, and added with purified water at a ratio of 1:1 for LC-MS/MS detection to obtain the ratio of peak area of compound to peak area of internal standard at each time point. […] T1/2 was calculated using Excel.

[15] = SGF, 4 h, listed as Benzenesulfonate Crystal form
[16] = SGF, 24 h, listed as Benzenesulfonate Crystal form
[17] = male, SD, rat, plasma, intravenous injection 1 mg/kg
[18] = male, SD, rat, plasma, oral intragastric administration 10 mg/kg
[19] = oral intragastric administration 10 mg/kg

## C[C@H](Cc1cnn[nH]1)OCC(=O)N1Cc2cnc(NC3Cc4ccccc4C3)nc2C1 [Crystal form A of benzenesulfonate]
[1]
  Purity (area %): 98.23 area %
  Purity/initial purity (%): 100.0%
[1]; XRPD
  Crystal form change: No
[2]
  particle size: less than 50 μm
[3]
  AUC(0-t): 7430 ng·h/mL
  Cmax: 6600 ng/mL
  Tmax: 30 min
  half-life: 71.4 min
[4]; 0% RH to 95% RH to 0% RH, 25° C.
  After DVS test Whether the crystal form is changed: No
[4]; DVS, 25° C.
  Hygroscopicity: Slightly
[4]; DVS, 25° C., 80% RH
  Vapor sorption (25° C./80% RH): 1.45%
[4]; at 0% RH to 80% RH
  DVS curve vapor sorption: less than 1.46%
[4]; hygroscopicity evaluation
  Risk evaluation: None
[5]
  crystal form after being stored for 6 months: unchanged
  stability after being stored for 6 months: excellent stability
[6]; SGF, 1 h
  Crystal form change: No
[6]; [15]
  Crystal form change: Clear
  pH: 1.9
[6]; [16]
  Crystal form change: Clear
  pH: 1.9
[6]; FaSSIF, 1 h, listed as Benzenesulfonate Crystal form
  pH: 6.0
[6]; FaSSIF, 4 h, listed as Benzenesulfonate Crystal form
  pH: 6.0
[6]; FaSSIF, 24 h, listed as Benzenesulfonate Crystal form
  pH: 6.0
[6]; FeSSIF, 1 h, listed as Benzenesulfonate Crystal form
  pH: 5.0
[6]; FeSSIF, 4 h, listed as Benzenesulfonate Crystal form
  pH: 5.0
[6]; FeSSIF, 24 h, listed as Benzenesulfonate Crystal form
  pH: 5.0
[6]; H2O, 1 h, listed as Benzenesulfonate Crystal form
  pH: 2.5
[6]; H2O, 4 h, listed as Benzenesulfonate Crystal form
  pH: 2.5
[6]; H2O, 24 h, listed as Benzenesulfonate Crystal form
  pH: 2.5
[6]; SGF, 1 h, listed as Benzenesulfonate Crystal form
  pH: 1.9
[6]; water, SGF, FaSSIF, FeSSIF
  solubility in each system compared with that of the free base crystal form A: significantly improved
Solid stability, 1 week; 25° C./60% RH
  Purity/initial purity (%): 100.0%
  Purity (area %): 99.35 area %
  Crystal form change: No
Solid stability, 1 week; 40° C./75% RH
  Purity/initial purity (%): 99.9%
  Purity (area %): 99.20 area %
  Crystal form change: No

## C[C@H](Cc1cnn[nH]1)OCC(=O)N1Cc2cnc(NC3Cc4ccccc4C3)nc2C1 [Compound of formula (I), (R)-2-((1-(1H-1,2,3-triazol-5-yl)propan-2-yl)oxy)-1-(2-((2,3-dihydro-1H-inden-2-yl)amino)-5,7-dihydro-6H-pyrrolo[3,4-d]pyrimidin-6-yl)ethan-1-one]
[7]; FaSSGF solution, fassgf or other biorelevant, heading: Solubility FaSSGF, FaSSGF, pH 1.6, room temperature overnight
  solubility: 1.04 mg/mL
[7]; FeSSIF solution, FeSSIF, pH 5.8, room temperature overnight, read-out: Solubility FeSSIF (pH 5.8)
  solubility: 260 mg/mL
[7]; phosphate buffered saline, aqueous buffer, PBS, pH 7.4, room temperature overnight, read-out: Solubility PBS (pH 7.4)
  solubility: 107 mg/mL
[8]
  clearance (CL) in rats relative to that of the control compound: about ⅙
[8]; [17]
  AUC(0-t): 3650 ng·h/mL
  clearance: 4.67 mL/min/kg
  half-life: 30 min
[8]; male, SD, rat, plasma, intravenous injection 1 mg/kg, read-out: Vz
  Vd: 0.21 L/kg
[8]; [18]
  AUC(0-t): 20700 ng·h/mL
  Cmax: 15800 ng/mL
  Tmax: 19.8 min
  half-life: 154 min
[8]; oral
  AUC0-t of oral administration relative to the control compound: 4.2 times
  Cmax of oral administration relative to the control compound: 6.1 times
[9]; ELISA, FIG. 44
  content of TGF-β1 in freshly cryopreserved lung tissue: significantly lower than that of the vehicle control group
  content of TGF-β1 in the bronchoalveolar lavage fluid supernatant: significantly lower than that of the vehicle control group
[9]; FIG. 43
  weight loss of the animals: significantly less than that of the control compound group
[10]; intravenous injection 1 mg/kg
  AUC(0-t): 626 ng·h/mL
  clearance: 26.7 mL/min/kg
  half-life: 22.8 min
[10]; intravenous injection 1 mg/kg, read-out: Vz
  Vd: 0.88 L/kg
[10]; [19]
  AUC(0-t): 6370 ng·h/mL
  Cmax: 6360 ng/mL
  Tmax: 15 min
  half-life: 52.2 min
hERG channel [11]
  hERG IC50/ATX IC50: 9.48/1.59 = 6.0
Autotaxin enzyme
  IC50: 1.59 nM
hERG channel [12]
  IC50: 9480 nM
[13]
  IC50: 4.7 nM
[14]
  T1/2 of the liver microsome stability relative to the control compound: more than 2 times
[14]; NADPH, 37° C.
  Remaining percentage of compound after 30 min of incubation (%): 63.7%
  half-life at 1.5 μM: 53.6 min
